Measured values from patent US20200129528A1, “METHODS FOR TREATING BLOOD PRESSURE CONDITIONS USING AMINOSTEROL COMPOSITIONS” (Enterin, Inc., priority 2018, published 2020).

Key:
[1] = system: IPANs (intrinsic primary afferent neuron); settings: perfusion through lumen of isolated bowel segment; cited from earlier work
[2] = Pharmacokinetics of orally administered squalamine (ENT-01) in Stage 1; assay type: in vivo, human; settings: PD patients, this study
Procedure: PK data were collected on the 10 patients enrolled in Stage 1 and 10 patients enrolled in Stage 2 to determine the extent of systemic absorption. In Stage 1, PK data were obtained at each visit, pre-medication, at 1, 2, 4, 8 and 24 hours (Table 10). In Stage 2, PK was measured on days 1 and 6 of the randomization period pre-medication, at 1, 2, 4 and 8 hours (Table 11).
The mean Cmax, Tmax and T1/2 and AUC of the squalamine ion following squalamine (ENT-01) oral dosing for Stage 1 patients. The PK analyses are only approximate, as the lower limit of the validated concentration range was 10 ng/ml; most of the measured concentrations fell below that value. The mean Cmax, Tmax and T1/2 and AUC of the squalamine ion following squalamine (ENT-01) oral dosing for Stage 2 patients. The PK analyses are only approximate, as the lower limit of the validated concentration range was 0.5 ng/ml.

[3] = system: mice with constipation due to overexpression of human αS; settings: oral; cited from earlier work
[4] = cited from earlier work
[5] = mice, following systemic administration; into the duodenum through the biliary tract; cited from earlier work

Structure (SMILES): CC(C)[C@@H](CC[C@@H](C)[C@H]1CC[C@H]2[C@@H]3[C@H](O)C[C@H]4C[C@@H](NCCCNCCCCN)CC[C@]4(C)[C@H]3CC[C@]12C)OS(=O)(=O)O [squalamine]
- effect on propulsive peristaltic contractions [1]: increasing the frequency of propulsive peristaltic contractions
- systemic absorption following oral administration [2]: not significantly absorbed into the systemic circulation
- effect on gastro-intestinal motility [3]: stimulates gastro-intestinal motility
- drug related GI toxicology ([4]; published clinical trials involving systemic administration): has not been reported
- effect of intravenous administration on gastrointestinal motility ([4]; systemic blood levels one thousand-fold greater than after oral dosing, prior studies): not associated with increased gastrointestinal motility
- route of clearance [5]: cleared by the liver and excreted as the intact molecule
